Measured values reported in PMC6598542, “Synthesis of a new series of 3-functionalised-1-phenyl-1,2,3-triazole sulfamoylbenzamides as carbonic anhydrase I, II, IV and IX inhibitors” (Journal of Enzyme Inhibition and Medicinal Chemistry, 2019).
Where two headings read alike, the source gives them in different places.

Key:
hCA II = biological target: T1, hCA II (Homo sapiens, UniProt P00918); experiment: stopped-flow CO2 hydration; type: biochemical; details: read-out: hCAII
T1 construct: gene CA2; recombinant, cytosolic isoform
In short: (§1)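 Each recombinant human isozyme was held with inhibitor for 10 min at room temperature before a stopped-flow assay of CO2 hydration at 25 °C. The buffer was 10 mM Hepes pH 7.4 with 0.1 M Na2SO4 or NaClO4 and 0.2 mM Phenol Red read at 557 nm over 5–10 s, and CO2-saturated water served as substrate. Ki constants come from non-linear least-squares fits using the Cheng-Prusoff equation. At least seven inhibitor concentrations, the lowest 0.01 nM, were tested in triplicate, and values are means of at least three determinations.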

hCA I = biological target: T2, hCA I (Homo sapiens, UniProt P00915); experiment: stopped-flow CO2 hydration; type: biochemical
T2 construct: gene CA1; recombinant, cytosolic isoform
T2 sequence (P00915 2-261): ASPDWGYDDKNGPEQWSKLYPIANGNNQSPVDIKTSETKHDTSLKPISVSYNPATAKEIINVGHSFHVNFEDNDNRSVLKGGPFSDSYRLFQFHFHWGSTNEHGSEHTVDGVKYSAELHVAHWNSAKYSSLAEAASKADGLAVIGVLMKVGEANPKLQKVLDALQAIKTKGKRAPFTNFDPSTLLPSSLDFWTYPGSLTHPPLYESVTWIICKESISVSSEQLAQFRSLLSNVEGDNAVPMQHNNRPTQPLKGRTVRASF
In short: as §1

hCA IX = biological target: T3, hCA IX (Homo sapiens, UniProt Q16790); experiment: stopped-flow CO2 hydration; type: biochemical
T3 construct: gene CA9; recombinant, transmembrane isoform
In short: as §1

hCA IV [1] = biological target: T4, hCA IV (Homo sapiens, UniProt P22748); experiment: biochemical; set-up: Stopped-flow CO2 hydration assay, phenol red at 557 nm, 10 min preincubation, recombinant hCA; Ki via Cheng-Prusoff
T4 construct: gene CA4
T4 sequence (P22748 19-284): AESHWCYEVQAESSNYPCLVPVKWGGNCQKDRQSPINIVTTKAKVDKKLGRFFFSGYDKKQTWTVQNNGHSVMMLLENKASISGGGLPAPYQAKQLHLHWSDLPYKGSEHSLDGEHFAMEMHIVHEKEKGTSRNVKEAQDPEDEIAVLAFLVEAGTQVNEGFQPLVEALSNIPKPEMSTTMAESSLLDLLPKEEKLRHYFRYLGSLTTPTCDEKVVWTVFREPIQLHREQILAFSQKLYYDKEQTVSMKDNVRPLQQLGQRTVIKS
Procedure: An SX.18 MV-R Applied Photophysics (Oxford, UK) stopped-flow instrument has been used for assaying the CA catalyzed CO2 hydration activity. Phenol Red (at a concentration of 0.2 mM) has been used as indicator, working at the absorbance maximum of 557 nm, with 10 mM Hepes (pH 7.4) as buffer, 0.1 M Na2SO4 or NaClO4 (for maintaining constant the ionic strength; these anions are not inhibitory in the used concentration), following the CA-catalyzed CO2 hydration reaction for a period of 5–10 s. Saturated CO2 solutions in water at 25 °C were used as substrate. Stock solutions of inhibitors were prepared at a concentration of 10 μM (in DMSO-water 1:1, v/v) and dilutions up to 0.01 nM done with the assay buffer mentioned above. At least seven different inhibitor concentrations have been used for measuring the inhibition constant. Inhibitor and enzyme solutions were preincubated together for 10 min at room temperature prior to assay, in order to allow for the formation of the E-I complex. Triplicate experiments were done for each inhibitor concentration, and the values reported throughout the paper are the mean of such results. The inhibition constants were obtained by non-linear least-squares methods using the Cheng-Prusoff equation, as reported earlier, and represent the mean from at least three different determinations. All CA isozymes used here were recombinant proteins obtained as reported earlier by our group[10]^c,[25]^,[26]. The newly synthesised compounds 3-sulfamoylbenzamide linked 1,2,3-triazoles (Figure 4) (6a–z) as well as the intermediates (3a–d) and (4a–d) (listed in Table 1) were screened for their CA inhibitory activities against four physiologically significant isoforms, the cytosolic hCA I (associated with edema) and II (associated with glaucoma) as well as the membrane bound hCA IV (associated with glaucoma and retinitis pigmentosa) and transmembrane hCA IX (associated with tumors) by means of the stopped flow carbon dioxide assays[29] in comparison to AAZ as standard CAI (Table 2).

hCA IV [2] = biological target: T4, hCA IV; experiment: stopped-flow CO2 hydration; type: biochemical
In short: as §1

[3] = CO2 substrate, pH […] Hepes, […] °C, […] min preincubation

Compound	Ki (hCA II)	Ki (hCA I)	Ki (hCA IX)	Ki (hCA IV [1])	Ki (hCA IV [2])	Ki (hCA II; [3])	Ki (hCA I; [3])	Ki (hCA IX; [3])
NS(=O)(=O)c1cccc(C(=O)O)c1 [3a, 3-Sulfamoylbenzoic acid]	8.66 µM	8.77 µM	9.42 µM					
NS(=O)(=O)c1cc(C(=O)O)ccc1Cl [3b, 4-Chloro-3-sulfamoylbenzoic acid]	1.38 µM	8.85 µM	8.98 µM	2.47 µM				
NS(=O)(=O)c1cc(C(=O)O)ccc1F [3c, 4-Fluoro-3-sulfamoylbenzoic acid]	0.76 µM	5.75 µM	9.57 µM	0.958 µM				
COc1ccc(C(=O)O)cc1S(N)(=O)=O [3d, 4-Methoxy-3-sulfamoylbenzoic acid]	9.18 µM	9.76 µM	9.67 µM	8.78 µM				
C#CCNC(=O)c1cccc(S(N)(=O)=O)c1 [4a, N-(prop-2-yn-1-yl)-3-sulfamoylbenzamide]	0.514 µM	9.28 µM	9.36 µM	8.46 µM				
C#CCNC(=O)c1ccc(Cl)c(S(N)(=O)=O)c1 [4b, 4-Chloro-N-(prop-2-yn-1-yl)-3-sulfamoylbenzamide]	0.0735 µM	4.93 µM	0.447 µM		0.0788 µM			
C#CCNC(=O)c1ccc(F)c(S(N)(=O)=O)c1 [4c, 4-Fluoro-N-(prop-2-yn-1-yl)-3-sulfamoylbenzamide]	0.165 µM	0.747 µM	0.816 µM		0.429 µM			
C#CCNC(=O)c1ccc(OC)c(S(N)(=O)=O)c1 [4d, 4-Methoxy-N-(prop-2-yn-1-yl)-3-sulfamoylbenzamide]	5.53 µM	9.5 µM	9.22 µM	6.84 µM				
NS(=O)(=O)c1cccc(C(=O)NCc2cn(-c3ccccc3)nn2)c1 [6a, N-((1-phenyl-1H-1,2,3-triazol-4-yl)methyl)-3-sulfamoylbenzamide]	4.49 µM	0.753 µM	7.98 µM	9.42 µM				
COc1cc(-n2cc(CNC(=O)c3cccc(S(N)(=O)=O)c3)nn2)cc(OC)c1OC [6b, 3-Sulfamoyl-N-((1–(3,4,5-trimethoxyphenyl)-1H-1,2,3-triazol-4-yl)methyl)benzamide]	8.97 µM	0.855 µM	4.9 µM					
NS(=O)(=O)c1cccc(C(=O)NCc2cn(-c3cccc([N+](=O)[O-])c3)nn2)c1 [6c, N-((1–(3-nitrophenyl)-1H-1,2,3-triazol-4-yl)methyl)-3-sulfamoylbenzamide]	9.27 µM	0.952 µM	6.92 µM					
NS(=O)(=O)c1cccc(C(=O)NCc2cn(-c3cccc(F)c3)nn2)c1 [6d, N-((1–(3-fluorophenyl)-1H-1,2,3-triazol-4-yl)methyl)-3-sulfamoylbenzamide]	2.97 µM	0.867 µM	7.42 µM	8.84 µM				
N#Cc1cccc(-n2cc(CNC(=O)c3cccc(S(N)(=O)=O)c3)nn2)c1 [6e, N-((1–(3-cyanophenyl)-1H-1,2,3-triazol-4-yl)methyl)-3-sulfamoylbenzamide]	2.36 µM	0.431 µM	3.19 µM	9.3 µM				
COc1ccc(-n2cc(CNC(=O)c3cccc(S(N)(=O)=O)c3)nn2)cc1 [6f, N-((1–(4-methoxyphenyl)-1H-1,2,3-triazol-4-yl)methyl)-3-sulfamoylbenzamide]						9.01 µM	0.888 µM	6.75 µM
Cc1cccc(-n2cc(CNC(=O)c3cccc(S(N)(=O)=O)c3)nn2)c1C [6g, N-((1–(2,3-dimethylphenyl)-1H-1,2,3-triazol-4-yl)methyl)-3-sulfamoylbenzamide]	0.366 µM	0.448 µM	6.13 µM	8.58 µM				
Cc1ccc(-n2cc(CNC(=O)c3cccc(S(N)(=O)=O)c3)nn2)c(C)c1 [6h, N-((1–(2,4-dimethylphenyl)-1H-1,2,3-triazol-4-yl)methyl)-3-sulfamoylbenzamide]	0.516 µM	0.693 µM	0.226 µM	1.76 µM				
NS(=O)(=O)c1cc(C(=O)NCc2cn(-c3ccccc3)nn2)ccc1Cl [6i, 4-Chloro-N-((1-phenyl-1H-1,2,3-triazol-4-yl)methyl)-3-sulfamoylbenzamide]	0.0712 µM	0.312 µM	0.0844 µM		0.17 µM			
COc1cc(-n2cc(CNC(=O)c3ccc(Cl)c(S(N)(=O)=O)c3)nn2)cc(OC)c1OC [6j, 4-Chloro-3-sulfamoyl-N-((1–(3,4,5-trimethoxyphenyl)-1H-1,2,3-triazol-4-yl)methyl)-benzamide]	0.0514 µM	0.479 µM	0.212 µM		2.28 µM			
COc1ccc(-n2cc(CNC(=O)c3ccc(Cl)c(S(N)(=O)=O)c3)nn2)cc1 [6k, 4-Chloro-N-((1–(4-methoxyphenyl)-1H-1,2,3-triazol-4-yl)methyl)-3-sulfamoylbenzamide]	0.0565 µM	0.0867 µM	0.0416 µM		0.08 µM			
NS(=O)(=O)c1cc(C(=O)NCc2cn(-c3ccc(C(F)(F)F)cc3)nn2)ccc1Cl [6m, 4-Chloro-3-sulfamoyl-N-((1–(4-(trifluoromethyl)phenyl)-1H-1,2,3-triazol-4-yl)methyl)benzamide]	0.0078 µM	0.811 µM	0.0346 µM		0.0899 µM			
NS(=O)(=O)c1cc(C(=O)NCc2cn(-c3ccccc3)nn2)ccc1F [6n, 4-Fluoro-N-((1-phenyl-1H-1,2,3-triazol-4-yl)methyl)-3-sulfamoylbenzamide]	0.0497 µM	0.89 µM	0.0845 µM		0.24 µM			
COc1ccc(-n2cc(CNC(=O)c3ccc(F)c(S(N)(=O)=O)c3)nn2)cc1 [6o, 4-Fluoro-N-((1–(4-methoxyphenyl)-1H-1,2,3-triazol-4-yl)methyl)-3-sulfamoylbenzamide]	0.0735 µM	0.0692 µM	0.0631 µM		0.175 µM			
NS(=O)(=O)c1cc(C(=O)NCc2cn(-c3ccc(C(F)(F)F)cc3)nn2)ccc1F [6p, 4-Fluoro-3-sulfamoyl-N-((1–(4-(trifluoromethyl)phenyl)-1H-1,2,3-triazol-4-yl)methyl)benzamide]	0.0911 µM	0.369 µM	0.235 µM		0.0918 µM			
COc1ccc(C(=O)NCc2cn(-c3ccccc3)nn2)cc1S(N)(=O)=O [6u, 4-Methoxy-N-((1-phenyl-1H-1,2,3-triazol-4-yl)methyl)-3-sulfamoylbenzamide]	2.9 µM	0.681 µM	0.703 µM	9.35 µM				
COc1ccc(C(=O)NCc2cn(-c3ccc(F)cc3)nn2)cc1S(N)(=O)=O [6v, N-((1–(4-fluorophenyl)-1H-1,2,3-triazol-4-yl)methyl)-4-methoxy-3-sulfamoylbenzamide]	9.65 µM	0.572 µM	6.82 µM	5.35 µM				
COc1ccc(C(=O)NCc2cn(-c3ccc(C)cc3)nn2)cc1S(N)(=O)=O [6w, 4-Methoxy-3-sulfamoyl-N-((1-(p-tolyl)-1H-1,2,3-triazol-4-yl)methyl)benzamide]	4.16 µM	0.967 µM	0.526 µM	7.62 µM				
COc1ccc(C(=O)NCc2cn(-c3ccc(C)cc3C)nn2)cc1S(N)(=O)=O [6x, N-((1–(2,4-dimethylphenyl)-1H-1,2,3-triazol-4-yl)methyl)-4-methoxy-3-sulfamoylbenzamide]	6.39 µM	7.56 µM	0.0938 µM	9.34 µM				
COc1ccc(C(=O)NCc2cn(-c3ccc(Br)cc3)nn2)cc1S(N)(=O)=O [6y, N-((1–(4-bromophenyl)-1H-1,2,3-triazol-4-yl)methyl)-4-methoxy-3-sulfamoylbenzamide]	2.33 µM	0.555 µM	1.87 µM	9.08 µM				
COc1ccccc1-n1cc(CNC(=O)c2ccc(OC)c(S(N)(=O)=O)c2)nn1 [6z, 4-Methoxy-N-((1–(2-methoxyphenyl)-1H-1,2,3-triazol-4-yl)methyl)-3-sulfamoylbenzamide]	5.37 µM	0.952 µM	0.768 µM	8.93 µM				
